Reference: patent publication US20190151283A1, “NON-STEROIDAL SELECTIVE GLUCOCORTICOID RECEPTOR AGONISTIC MODULATORS (SEGRAMs) AND USES THEREOF” (ASSOCIATION POUR LA RECHERCHE À L'IGBMC (ARI), priority 2017, published 2019)

How the values were obtained:
[1] = tested on: Balb/C mouse ears; assay: TPA-induced irritant contact dermatitis-like inflammation; format: in vivo; conditions: for TPA-induced ear skin inflammation, histological analysis: compared to the control; for TPA-induced ear skin inflammation, histological analysis / expression of TSLP in TPA-treated mouse epidermis: data not shown; for TPA-induced transcription of pro-inflammatory genes: ear extracts, q-RT-PCR, D10; for expression of TSLP in TPA-treated mouse epidermis: immunochemistry with TSLP-specific antibody; for TPA-induced skin inflammation: topical, 5 days co-treatment with TPA
Method: Balb/C mouse ears were topically treated with TPA to induce an “irritant contact dermatitis-like inflammation”.
Mice were treated for 4 days with TPA, then for 5 extra days (until D9) with either vehicle, TPA alone, TPA and Dex, TPA and CpdX or TPA and CpdX-D3.
At D10, RNA transcripts were extracted from mouse ear skin samples and the transcripts of CCL4, COX2, MMP13, IL-1β, IL-6, TNF-α, TSLP, IL-22 and IL-23 were analyzed by q-RT-PCR. Ear skin was harvested, and histological (with H&E staining) and immunohistochemical (with anti-TSLP antibodies) analyses were carried out.

[2] = tested on: Balb/C mouse ears; assay: Aldara-induced psoriasis-like skin inflammation; format: in vivo; conditions: for induced expression of the Th17 cytokines IL-17a, IL-17c, IL-17f and IL-22: ear extracts, q-RT-PCR, D10; for Aldara-induced psoriasis-like skin inflammation, H&E histology: mouse, in vivo; for Aldara-induced psoriasis-like skin inflammation: topical co-treatment for the last 5 days, 1 nmole/cm^2
Method: Balb/C mouse ears were topically treated with Aldara® to induce a psoriasis-like skin inflammation (Vinter et al., 2015. Br J Dermatol. 172(2):345-53). Mice were treated for 9 days with Aldara®, including a co-topical treatment for the last 5 days with either ethanol (Vehicle), Dex, CpdX or CpdX-D3.
At D10, RNA transcripts were extracted from mouse ears and IL-17a, IL-17c, IL-17f and IL-22 transcripts were analyzed by q-RT-PCR. Ear skin samples were also harvested for histological analyses (with H&E staining).

[3] = tested on: Balb/C mouse ears; assay: Calcipotriol (MC 903)-induced atopic dermatitis-like inflammation; format: in vivo; conditions: for MC 903-induced ear skin inflammation, histological analysis: compared to the control; for MC 903-induced transcription of pro-inflammatory genes (MMP13, COX2, IL-1β, IL-6, IL-10, IL-13 and TSLP): ear extracts, q-RT-PCR, D23; for expression of the TSLP lymphokine in MC 903-treated mouse epidermis: immunohistochemistry, data not shown; for MC 903-induced skin inflammation: topical, 8 days co-treatment with MC 903
Method: To investigate the CpdX anti-inflammatory activity in vivo, Balb/C mouse ears were topically treated with calcipotriol (MC 903, a vitamin D3 analogue), in order to induce an atopic dermatitis (AD)-like inflammation (Li et al., 2006. Proc Natl Acad Sci USA. 103[…].
Mice were treated for 14 days with MC 903, and then for 8 extra days (until D22) with either MC 903 alone (control), MC 903 and Dex, MC 903 and CpdX, MC 903 and CpdX(eA), MC 903 and CpdX(eB), MC 903 and CpdX-D3, MC 903 and CpdX-D3(eA) and MC 903 and CpdX-D3(eB).
At D23, RNA transcripts were extracted from mouse ear skin samples and the transcripts of 7 cytokines (MMP13, COX2, IL-1β, IL-6, IL-10, IL-13 and TSLP) were analyzed by q-RT-PCR. Ear skin was harvested and histological (with H&E staining) and immunohistochemical (with anti-TSLP antibodies) analyses were carried out.

[4] = tested on: B6 male mice; assay: Body weight and body composition after three-month treatment; format: in vivo, mouse; conditions: s.c. 1 mg/kg daily, 3 months, pDEXA
Method: B6 male mice (8-week-old) were daily subjected for three months to a subcutaneous injection of either vehicle (NaCl 0.9%), Dex, CpdX or CpdX-D3 (1 mg/kg body weight, diluted in vehicle. A pDEXA machine was used to determine the lean mass and fat mass. The statistical significance was calculated through Krustal-Walis test followed by a Dunn's multiple comparison test, *p<0.05; **p<0.01; ***p<0.001.

[5] = target: T1, glucocorticoid receptor (GR) (Mus musculus, UniProt P06537); assay: GR transcriptional functions in mouse ears after topical 18-hour treatment (q-RT-PCR); format: in vivo
T1 construct: RNA transcripts were then extracted from mouse ears; from tissue; host or cells: ear skin of Balb/C mice (in vivo topical treatment)
T1 sequence (P06537 1-792): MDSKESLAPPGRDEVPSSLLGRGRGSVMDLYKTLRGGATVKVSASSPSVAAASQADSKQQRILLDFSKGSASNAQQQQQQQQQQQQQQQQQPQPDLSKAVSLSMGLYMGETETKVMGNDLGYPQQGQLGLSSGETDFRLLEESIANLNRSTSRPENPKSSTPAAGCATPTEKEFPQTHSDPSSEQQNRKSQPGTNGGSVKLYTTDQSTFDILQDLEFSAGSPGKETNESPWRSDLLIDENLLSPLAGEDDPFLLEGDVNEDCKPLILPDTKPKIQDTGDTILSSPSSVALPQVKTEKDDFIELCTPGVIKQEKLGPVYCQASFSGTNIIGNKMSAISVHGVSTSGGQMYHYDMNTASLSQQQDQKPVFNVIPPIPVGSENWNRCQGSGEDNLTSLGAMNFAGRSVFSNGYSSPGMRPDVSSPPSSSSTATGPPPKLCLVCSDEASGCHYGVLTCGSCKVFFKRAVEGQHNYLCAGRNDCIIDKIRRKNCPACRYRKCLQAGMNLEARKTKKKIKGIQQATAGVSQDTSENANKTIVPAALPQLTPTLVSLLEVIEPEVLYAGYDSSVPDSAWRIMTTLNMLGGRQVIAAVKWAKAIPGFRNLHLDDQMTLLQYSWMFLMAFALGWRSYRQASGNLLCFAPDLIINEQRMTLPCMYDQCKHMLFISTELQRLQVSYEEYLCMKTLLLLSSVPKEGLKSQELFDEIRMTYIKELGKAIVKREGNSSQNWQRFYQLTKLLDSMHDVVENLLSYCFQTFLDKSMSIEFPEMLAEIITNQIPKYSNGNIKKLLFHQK
Method: RNA transcripts were then extracted from mouse ears and the transcripts of 4 genes were analyzed by q-RT-PCR: • (i) the directly GR-transactivated gene of the mTOR inhibitor REDD1, • (ii) the GR-directly transrepressed gene of keratin 5 (K5) and • (iii) the GR-indirectly “tethered” transrepressed genes of interleukin-1β (IL-1β) and interleukin-6 (IL-6), both being activated in presence of 12-O-tetradecanoylphorbol-13-acetate (TPA).

[6] = topical 18 h, 1 nmole/cm^2, q-RT-PCR, vs Vehicle

SMILES	TPA-induced ear skin inflammation, histological analysis [1]	TPA-induced transcription of pro-inflammatory genes [1]	expression of TSLP in TPA-treated mouse epidermis [1]	TPA-induced skin inflammation [1]	induced expression of the Th17 cytokines IL-17a, IL-17c, IL-17f and IL-22 [2]	Aldara-induced psoriasis-like skin inflammation, H&E histology [2]	Aldara-induced psoriasis-like skin inflammation [2]	MC 903-induced ear skin inflammation, histological analysis [3]	MC 903-induced transcription of pro-inflammatory genes (MMP13, COX2, IL-1β, IL-6, IL-10, IL-13 and TSLP) [3]	expression of the TSLP lymphokine in MC 903-treated mouse epidermis [3]	MC 903-induced skin inflammation [3]	fat mass [4]	lean percentage / lean mass [4]	GR functions induced (direct transactivation, direct transrepression, indirect tethered transrepression) ([5]; in vivo transcriptional analyses, 1 nmole/cm^2)	direct transrepression of the K5 gene (relative RNA expression) [5, 6]	transactivation of the REDD1 gene (relative RNA expression) [5, 6]
[2H]C([2H])([2H])Oc1ccc(F)cc1C(C)(C)CC(O)(CNc1ccc2c(c1)COC2=O)C(F)(F)F (racemic) [CpdX-D3, 5-{4-[2-(methoxy-D3)-5-fluorophenyl]-2-hydroxy-4-methyl-2-(trifluoro-methyl)pentylamino}isobenzofuran-1(3H)-one]	significantly decreased	repressed, as efficiently as Dex	similarly strongly decreased	significantly decreased	similarly reduced	could reduce	significantly decreased	decreased	repressed, as efficiently as Dex	similarly strongly decreased	significantly decreased	commensurate increase	commensurate increase			
COc1ccc(F)cc1C(C)(C)CC(O)(CNc1ccc2c(c1)COC2=O)C(F)(F)F (racemic) [CpdX, 5-[4-(5-fluoro-2-methoxyphenyl)-2-hydroxy-4-methyl-2-(trifluoromethyl)pentylamino]-isobenzofuran-1(3H)-one]	significantly decreased	repressed, as efficiently as Dex	similarly strongly decreased	significantly decreased	similarly reduced	could reduce	significantly decreased	decreased	repressed, as efficiently as Dex	similarly strongly decreased	significantly decreased	commensurate increase	commensurate increase	selectively exhibits an indirect tethered transrepression activity	unchanged	unchanged
